Experiments:
[1] = target: Cathepsin S (Homo sapiens, UniProt P25774); test: Inhibition of human cathepsin S
[2] = target: T1, Cathepsin K (Homo sapiens, UniProt P43235); test: Inhibition of human cathepsin K
T1 sequence (P43235 whole entry): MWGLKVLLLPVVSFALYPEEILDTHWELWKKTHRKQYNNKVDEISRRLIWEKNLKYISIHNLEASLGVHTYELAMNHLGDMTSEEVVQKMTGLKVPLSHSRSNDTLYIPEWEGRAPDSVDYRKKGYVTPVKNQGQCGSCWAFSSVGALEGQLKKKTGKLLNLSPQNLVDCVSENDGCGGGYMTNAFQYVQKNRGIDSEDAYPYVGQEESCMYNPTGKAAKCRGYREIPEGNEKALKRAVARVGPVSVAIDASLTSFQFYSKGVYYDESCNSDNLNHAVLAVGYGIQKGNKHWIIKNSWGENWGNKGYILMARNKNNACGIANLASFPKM

[3] = target: Cathepsin B (Homo sapiens, UniProt P07858); test: Inhibition of human cathepsin B
[4] = target: Procathepsin L (Homo sapiens, UniProt P07711); test: Inhibition of human cathepsin L
Procathepsin L (Homo sapiens, UniProt P07711), sequence (P07711 whole entry): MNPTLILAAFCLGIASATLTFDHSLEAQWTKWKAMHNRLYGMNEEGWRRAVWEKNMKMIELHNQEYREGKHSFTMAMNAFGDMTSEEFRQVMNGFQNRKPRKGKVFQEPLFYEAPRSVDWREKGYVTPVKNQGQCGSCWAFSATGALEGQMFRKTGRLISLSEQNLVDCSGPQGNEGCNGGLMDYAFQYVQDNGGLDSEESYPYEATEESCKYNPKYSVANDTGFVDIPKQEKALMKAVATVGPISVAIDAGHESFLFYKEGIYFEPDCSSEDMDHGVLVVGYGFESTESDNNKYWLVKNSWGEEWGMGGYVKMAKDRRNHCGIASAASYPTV

[5] = target: Cathepsin S (Mus musculus, UniProt O70370); test: Inhibition of mouse recombinant cathepsin S
Cathepsin S (Mus musculus, UniProt O70370), sequence (O70370 whole entry): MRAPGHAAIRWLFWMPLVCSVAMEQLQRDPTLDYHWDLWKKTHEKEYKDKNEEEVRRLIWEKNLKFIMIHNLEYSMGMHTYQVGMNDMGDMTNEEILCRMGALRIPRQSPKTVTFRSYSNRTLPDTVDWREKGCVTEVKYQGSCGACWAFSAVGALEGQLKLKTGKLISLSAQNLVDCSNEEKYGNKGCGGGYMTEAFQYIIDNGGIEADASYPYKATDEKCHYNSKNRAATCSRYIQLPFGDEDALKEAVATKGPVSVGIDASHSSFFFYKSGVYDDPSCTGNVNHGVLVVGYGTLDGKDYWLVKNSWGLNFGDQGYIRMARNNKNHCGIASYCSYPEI

[6] = target: T2, Cathepsin K (Mus musculus, UniProt P55097); test: Inhibition of mouse recombinant cathepsin K
T2 sequence (P55097 whole entry): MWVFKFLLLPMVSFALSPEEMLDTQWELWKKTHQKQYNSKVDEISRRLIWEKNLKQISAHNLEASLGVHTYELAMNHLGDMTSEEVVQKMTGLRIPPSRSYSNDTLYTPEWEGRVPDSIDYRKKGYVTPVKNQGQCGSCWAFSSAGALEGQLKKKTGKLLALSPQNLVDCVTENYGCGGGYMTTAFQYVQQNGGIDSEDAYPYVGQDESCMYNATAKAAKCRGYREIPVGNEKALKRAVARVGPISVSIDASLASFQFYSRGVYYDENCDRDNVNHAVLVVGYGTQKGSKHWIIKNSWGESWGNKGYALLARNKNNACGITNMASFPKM

[7] = target: Cathepsin B (Mus musculus, UniProt P10605); test: Inhibition of mouse recombinant cathepsin B
Cathepsin B (Mus musculus, UniProt P10605), sequence (P10605 whole entry): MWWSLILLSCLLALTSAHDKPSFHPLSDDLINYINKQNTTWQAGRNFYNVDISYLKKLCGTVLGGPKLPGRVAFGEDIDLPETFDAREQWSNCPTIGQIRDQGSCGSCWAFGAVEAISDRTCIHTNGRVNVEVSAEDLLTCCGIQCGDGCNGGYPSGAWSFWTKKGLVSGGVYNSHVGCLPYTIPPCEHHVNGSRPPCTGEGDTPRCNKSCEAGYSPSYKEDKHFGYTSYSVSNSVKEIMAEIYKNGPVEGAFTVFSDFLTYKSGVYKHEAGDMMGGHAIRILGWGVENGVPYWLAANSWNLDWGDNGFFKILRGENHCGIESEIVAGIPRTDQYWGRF

[8] = target: Cathepsin S (Rattus norvegicus, UniProt Q02765); test: Inhibition of rat spleen cathepsin S; type: tissue-based
Cathepsin S (Rattus norvegicus, UniProt Q02765), sequence (Q02765 whole entry): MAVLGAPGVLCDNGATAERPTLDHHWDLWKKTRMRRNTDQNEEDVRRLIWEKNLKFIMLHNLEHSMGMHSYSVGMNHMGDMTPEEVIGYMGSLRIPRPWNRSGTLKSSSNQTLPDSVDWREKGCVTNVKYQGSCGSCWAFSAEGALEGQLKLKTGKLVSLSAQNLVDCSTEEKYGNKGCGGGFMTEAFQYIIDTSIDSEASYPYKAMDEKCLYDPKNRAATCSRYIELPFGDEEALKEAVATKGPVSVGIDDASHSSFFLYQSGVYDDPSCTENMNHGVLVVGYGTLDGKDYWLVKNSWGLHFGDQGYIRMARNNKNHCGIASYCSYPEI

[9] = target: Cathepsin B (Rattus norvegicus, UniProt P00787); test: Inhibition of rat liver lysosomal cathepsin B
Cathepsin B (Rattus norvegicus, UniProt P00787), sequence (P00787 whole entry): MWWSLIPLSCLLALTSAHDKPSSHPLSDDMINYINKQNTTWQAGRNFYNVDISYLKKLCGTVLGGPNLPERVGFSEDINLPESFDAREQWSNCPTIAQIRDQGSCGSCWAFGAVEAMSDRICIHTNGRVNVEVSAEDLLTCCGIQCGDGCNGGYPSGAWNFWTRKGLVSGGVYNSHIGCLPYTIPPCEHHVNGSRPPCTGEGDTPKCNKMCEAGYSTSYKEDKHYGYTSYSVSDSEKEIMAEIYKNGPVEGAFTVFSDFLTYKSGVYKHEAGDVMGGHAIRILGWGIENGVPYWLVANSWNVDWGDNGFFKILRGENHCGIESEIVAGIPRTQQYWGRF

[10] = target: T3, Procathepsin L (Mus musculus, UniProt P06797); test: Inhibition of mouse recombinant cathepsin L
T3 sequence (P06797 whole entry): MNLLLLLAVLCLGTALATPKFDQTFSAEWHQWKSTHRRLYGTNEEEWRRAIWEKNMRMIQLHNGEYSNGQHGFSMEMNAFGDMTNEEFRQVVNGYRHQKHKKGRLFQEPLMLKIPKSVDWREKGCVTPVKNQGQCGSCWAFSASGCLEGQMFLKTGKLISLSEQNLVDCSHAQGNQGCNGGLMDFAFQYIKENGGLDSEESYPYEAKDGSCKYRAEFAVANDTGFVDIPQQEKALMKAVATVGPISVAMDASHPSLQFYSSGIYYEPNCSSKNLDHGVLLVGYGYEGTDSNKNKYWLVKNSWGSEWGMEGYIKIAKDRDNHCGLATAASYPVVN

[11] = target: T4, Procathepsin L (Rattus norvegicus, UniProt P07154); test: Inhibition of rat liver lysosomal cathepsin L
T4 sequence (P07154 whole entry): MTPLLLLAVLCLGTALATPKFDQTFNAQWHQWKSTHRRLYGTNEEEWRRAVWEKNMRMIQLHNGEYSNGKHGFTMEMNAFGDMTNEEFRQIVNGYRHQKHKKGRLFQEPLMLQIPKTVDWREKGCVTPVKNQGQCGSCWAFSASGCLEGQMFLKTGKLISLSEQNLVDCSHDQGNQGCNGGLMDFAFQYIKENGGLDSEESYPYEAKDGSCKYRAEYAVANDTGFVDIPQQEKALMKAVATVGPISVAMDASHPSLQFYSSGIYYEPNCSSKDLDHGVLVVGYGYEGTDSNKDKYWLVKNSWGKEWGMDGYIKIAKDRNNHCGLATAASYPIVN

[12] = Bioavailability in Sprague-Dawley rat; type: ADME, organism-based; conditions: in vivo
[13] = Cmax in Sprague-Dawley rat; type: ADME, organism-based; conditions: in vivo
[14] = Half life in Sprague-Dawley rat; type: ADME, organism-based; conditions: in vivo
[15] = system: Hepatocyte; test: Metabolic stability in rat hepatocytes after 2 hrs; type: ADME, cell-based
[16] = Inhibition of antigen presentation in mouse B cells; type: functional, cell-based
[17] = Cmax in po dosed Sprague-Dawley rat administered in 1:1 inwitor/tween 80 solution; type: ADME, organism-based; set-up: route oral; conditions: in vivo
[18] = system: Rattus norvegicus; test: Half life in po dosed Sprague-Dawley rat administered in 1:1 inwitor/tween 80 solution; type: ADME, organism-based; conditions: in vivo
[19] = Bioavailability in po dosed Sprague-Dawley rat administered in 1:1 inwitor/tween 80 solution; type: ADME, organism-based; conditions: in vivo

Cathepsin S (Homo sapiens, UniProt P25774), sequence (P25774 whole entry): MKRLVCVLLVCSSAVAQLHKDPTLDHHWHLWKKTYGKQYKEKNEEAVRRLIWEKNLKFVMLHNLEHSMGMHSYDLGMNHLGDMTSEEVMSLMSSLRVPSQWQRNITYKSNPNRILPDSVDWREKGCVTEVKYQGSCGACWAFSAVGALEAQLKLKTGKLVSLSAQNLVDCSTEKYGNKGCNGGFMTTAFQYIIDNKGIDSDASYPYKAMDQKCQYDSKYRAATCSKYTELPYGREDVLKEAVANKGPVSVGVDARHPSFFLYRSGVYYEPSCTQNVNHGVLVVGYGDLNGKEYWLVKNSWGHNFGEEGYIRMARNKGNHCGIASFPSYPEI

Row | Compound | IC50 [1] | IC50 [2] | IC50 [3] | IC50 [4] | IC50 [5] | IC50 [6] | IC50 [7] | IC50 [8] | IC50 [9] | IC50 [10] | IC50 [11] | bioavailability [12] | Cmax [13] | half-life [14] | Stability [15] | IC50 [16] | Cmax [17] | t1/2 [18] | bioavailability [19]
1 | N#CC1(NC(=O)[C@H](CS(=O)(=O)c2cccc(Br)c2)N[C@@H](c2ccccc2)C(F)(F)F)CC1 | 0.2 nM | 269 nM | 6630 nM | 23 nM | < 0.2 nM | 2550 nM | 4010 nM | 44 nM | 4700 nM | 90 nM | 132 nM |  |  |  |  |  |  |  | 
2 | N#CC1(NC(=O)[C@H](CS(=O)(=O)Cc2cccc(F)c2F)N[C@@H](c2ccccc2)C(F)(F)F)CC1 | 0.3 nM | > 10000 nM | 1840 nM | 105 nM |  |  |  |  |  |  |  |  |  |  |  |  |  |  | 
3 | CS(=O)(=O)C[C@H](N[C@@H](c1ccc(Br)cc1)C(F)(F)F)C(=O)NC1(C#N)CC1 | 11 nM | 31 nM |  |  | 1.6 nM | 1030 nM | 69 nM | 1050 nM | 66 nM | 2220 nM | 1280 nM | 40% | 3300 nM | 11 h | Stable |  |  |  | 
4 | N#CC1(NC(=O)[C@H](CS(=O)(=O)Cc2ccc(F)cc2)N[C@@H](c2ccccc2)C(F)(F)F)CC1 | 0.5 nM | > 10000 nM | 2780 nM | 86 nM |  |  |  |  |  |  |  |  |  |  |  |  |  |  | 
5 | N#CC1(NC(=O)[C@H](CS(=O)(=O)c2nccs2)N[C@@H](c2ccccc2)C(F)(F)F)CC1 | 5 nM | 376 nM | 3610 nM | 181 nM |  |  |  |  |  |  |  |  |  |  |  |  |  |  | 
6 | C[S+]([O-])C[C@H](N[C@@H](c1ccc(Br)cc1)C(F)(F)F)C(=O)NC1(C#N)CC1 (some centres undefined) | 2170 nM | 639 nM | 8030 nM | > 10000 nM |  |  |  |  |  |  |  |  |  |  |  |  |  |  | 
7 | CC(C)(c1ccc(F)cc1)S(=O)(=O)C[C@H](N[C@@H](c1ccc(F)cc1)C(F)(F)F)C(=O)NC1(C#N)CC1 | 627 nM | > 10000 nM | > 10000 nM | > 10000 nM |  |  |  |  |  |  |  |  |  |  |  |  |  |  | 
8 | N#CC1(NC(=O)[C@H](CS(=O)(=O)c2ccc(Cl)c(Cl)c2)N[C@@H](c2ccccc2)C(F)(F)F)CC1 | 0.2 nM | 314 nM | 8510 nM | 24 nM | < 0.2 nM | 1460 nM | 3020 nM | 15 nM | 5690 nM | 59 nM | 48 nM | 9% | 88 nM | 1.7 h |  |  | 660 nM | 1.7 h | 30%

The next lines start with the values.

Row | IC50 [1] | IC50 [2] | IC50 [3] | IC50 [4] | IC50 [5] | IC50 [6] | IC50 [7] | IC50 [8] | IC50 [9] | IC50 [10] | IC50 [11] | bioavailability [12] | Cmax [13] | half-life [14] | Stability [15] | IC50 [16] | Cmax [17] | t1/2 [18] | bioavailability [19] | Compound
9 | 0.5 nM | 2000 nM | 1000 nM | 188 nM | 0.9 nM | > 10000 nM | 253 nM | 759 nM | 272 nM | 332 nM | 738 nM | 40% | 2800 nM | 3.8 h |  |  |  |  |  | N#CC1(NC(=O)[C@H](CS(=O)(=O)CC2CC2)N[C@@H](c2ccc(F)cc2)C(F)(F)F)CC1
10 | 0.4 nM | 3060 nM | 337 nM | 132 nM |  |  |  |  |  |  |  | 5% | 140 nM | 1.6 h |  |  |  |  |  | CC(C)CS(=O)(=O)C[C@H](N[C@@H](c1ccc(F)cc1)C(F)(F)F)C(=O)NC1(C#N)CC1
11 | 0.3 nM | > 10000 nM | 1320 nM | 121 nM | 0.8 nM | > 10000 nM | 384 nM | 21 nM | 384 nM | 662 nM | 399 nM | 3% | 46 nM | 1.2 h |  |  |  |  |  | N#CC1(NC(=O)[C@H](CS(=O)(=O)Cc2cccc(F)c2F)N[C@@H](c2ccc(F)cc2)C(F)(F)F)CC1
12 | 0.7 nM | > 10000 nM | > 10000 nM | 249 nM |  |  |  |  |  |  |  |  |  |  |  |  |  |  |  | N#CC1(NC(=O)[C@H](CS(=O)(=O)Cc2c(F)cccc2F)N[C@@H](c2ccc(F)cc2)C(F)(F)F)CC1
13 |  | 0.2 nM |  |  | 254 nM | 43 nM | 540 nM | 2440 nM | 925 nM | 254 nM | 90 nM |  |  |  |  | 4810 nM |  |  |  | CC(C)C[C@H](N[C@@H](c1ccc(-c2ccc(S(C)(=O)=O)cc2)cc1)C(F)(F)F)C(=O)NCC#N
